Entries after “also recorded” stand apart in the source; their conditions may differ.
Target: Parkin (Homo sapiens (Human), UniProt O60260)
Experiment: Parkin activation in human primary fibroblasts (western blot)
Format: cell-based
Conditions: for MFN1/2 degradation and pSer65-Ub levels: 5 μM before low dose CCCP (3.5 μM); for MFN1 ubiquitylation or pSer65-Ub signals, compound treatment alone: different concentrations, 2 h, absence of CCCP
Procedure: FIGS. 15A-15H show Parkin activation in primary fibroblasts, neuronal cells and in vitro. Positive control (PC) cells were treated with DMSO and 10 μM of CCCP. Negative control (NC) cells were treated with 3.5 μM CCCP, some cells were left untreated (−). […] Vinculin was used as loading control. […] FIG. 15C: Human fibroblasts were directly converted to neurons and treated as in FIG. 15B. […] Beta III tubulin confirmed successful conversion of fibroblasts to iNeurons. FIG. 15D: Rat PC12 cells were treated as in FIG. 15A. Western blots show enhanced ubiquitylation of MFN2 and TOM70, and robust pSer65-Ub induction similar to PC, but not NC cells. FIG. 15E: In vitro E2 discharge assay. Recombinant Parkin was pre-incubated with compound 4 or DMSO as control and was mixed to Ub-loaded UbcH7. […] Control reactions were performed without PINK1 or Parkin. FIG. 15F: In vitro assay with isolated mitochondria from untreated or CCCP-treated HeLa cells lacking Parkin. Mitochondrial preparations were mixed with recombinant Parkin, E1, UbcH7, ATP and either compound 4 or DMSO as a control and incubated for the indicated times. […] Control samples were incubated in reaction mix without Parkin. FIG. 15G: Protein melting was performed with 50 ng purified Parkin mixed with SYPRO orange and DMSO as control or 500 nM compound 4. […] FIG. 15H: Statistical analysis of three independent experiments as performed in FIG. 15G. Shown in the average value+/−SD (unpaired, two-sided t-test; *** p<0.0005).
FIG. 16A: Quantification of pSer65-Ub signal using sandwich ELISA from six independent experiments performed in human fibroblast treated as described in FIG. 15A. Shown in the average−/+SD. One-way ANOVA with Tukey's posthoc test (*** p<0.0005). FIG. 16B: Human primary fibroblasts were treated with different concentrations of all five compounds (1, 2, 3, 4, and 31) for 2 h. […] Different CCCP concentrations were used as positive control. FIG. 16C: Rat PC12 cells were pretreated with 5 μM of the compounds for 2 h and then treated with low dose of CCCP (3.5 μM). Control cells were treated with DMSO and either 10 μM CCCP (PC) or 3.5 μM (NC). Some cells received no CCCP (−). […] The PINK1/Parkin product pSer65-Ub was induced by all five compounds upon low dose treatment and in positive controls. FIG. 16D: PC12 cells were differentiated by treatment with NGF (NGF+). Some cells were left undifferentiated (NGF−). Cells were treated with 5 μM of compounds or DMSO as indicated. 2 h later, low dose CCCP (3.5 μM) was added to cells treated with test compounds. DMSO controls were either treated with 3.5 μM CCCP (NC) or 10 μM CCCP (PC). Some cells were not treated with CCCP (−). Western blots probed with antibodies against MFN1 show degradation in cells treated with compounds and in the positive control. Some degradation can also be observed in the negative control. […] Beta III tubulin was used to confirm successful differentiation. Vinculin was used as loading control.
Primary fibroblasts (Cell Applications) were cultured in fibroblast growth medium (FGM): DMEM containing 10% FBS, 1% penicillin-streptomycin and 1% non-essential amino acids. Direct conversion to neurons was performed utilizing short hairpin RNA targeting polypyrimidine-tract-binding protein (shPTB), which affects proneuronal micro-RNA circuits (Xue et al., Cell (2013) 152:82-96. Cells were seeded with 40,000 cells/mL and allowed to adhere overnight. 48 h after transduction with pLKO. 1_shPTB lentivirus, positive cells were selected with 2 μg/mL puromycin in fibroblast growth medium. On day 6 media was changed to FGM containing 10 ng/mL fibroblast growth factor (FGF, Genscript). On day 8, media was changed to differentiation media (DMEM:F12 (Invitrogen), 25 μg/mL insulin, 50 μg/mL transferrin, 0.1 μM putrescine 0.03 μM Na-selenite (all Sigma-Aldrich), and 15 ng/mL FGF) containing 5% FBS. On days 10 and 12 media was replaced with differentiation media containing reduced serum (2% FBS). […]

Sequence of Parkin (O60260 whole entry): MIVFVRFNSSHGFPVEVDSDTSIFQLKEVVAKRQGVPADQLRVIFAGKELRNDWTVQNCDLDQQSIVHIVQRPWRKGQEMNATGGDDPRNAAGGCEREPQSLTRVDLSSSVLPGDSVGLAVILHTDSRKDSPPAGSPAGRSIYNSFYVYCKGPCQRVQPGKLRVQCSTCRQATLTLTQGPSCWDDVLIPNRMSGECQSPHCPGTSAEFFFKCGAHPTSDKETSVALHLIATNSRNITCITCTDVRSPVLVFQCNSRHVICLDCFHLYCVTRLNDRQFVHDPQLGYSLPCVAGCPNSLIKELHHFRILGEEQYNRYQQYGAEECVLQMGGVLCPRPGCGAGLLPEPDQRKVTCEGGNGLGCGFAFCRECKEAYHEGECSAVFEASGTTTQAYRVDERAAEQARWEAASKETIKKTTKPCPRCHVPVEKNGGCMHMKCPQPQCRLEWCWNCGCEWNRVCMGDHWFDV

Row | Compound | MFN1/2 degradation and pSer65-Ub levels | MFN1 ubiquitylation or pSer65-Ub signals, compound treatment alone | mitofusin ubiquitylation/degradation and pSer65-Ub signal (5 μM for 2 h before different concentrations of CCCP)
1 | O=C(Cn1cnc2c1CCCC2)Nc1ccc(-c2ccccc2)cc1 [Compound 1] | enhanced degradation of the substrates MFN1/2 and increase of pSer65-Ub levels; also recorded: strongest effects | did not induce MFN1 ubiquitylation or pSer65-Ub signals | –
2 | CC(C)c1nccn1CC(=O)Nc1ccc(-c2ccccc2)cc1 [Compound 2] | enhanced degradation of the substrates MFN1/2 and increase of pSer65-Ub levels | did not induce MFN1 ubiquitylation or pSer65-Ub signals | –
3 | CC(C)(C)Sc1ccc(NC(=O)Cn2ccnc2)cc1 [Compound 3] | enhanced degradation of the substrates MFN1/2 and increase of pSer65-Ub levels | did not induce MFN1 ubiquitylation or pSer65-Ub signals | –
4 | O=C(Cn1ccnc1-c1ccccn1)Nc1ccc(-c2ccccc2)cc1 [Compound 4] | enhanced degradation of the substrates MFN1/2 and increase of pSer65-Ub levels; also recorded: strongest effects | did not induce MFN1 ubiquitylation or pSer65-Ub signals | increased ubiquitylation/degradation of mitofusins and amplification of the pSer65-Ub signal
5 | Cc1nc2c(c(N3CCCN(Cc4ccccc4)CC3)n1)CCCC2 [Compound 31] | enhanced degradation of the substrates MFN1/2 and increase of pSer65-Ub levels | did not induce MFN1 ubiquitylation or pSer65-Ub signals | –
